Tests used:
cardiac β-receptor = cardiac β-receptor blocking activity: inhibition of isoprenalin tachycardia in wake rabbits; details: for LD50/DE250: ratio of mouse i.v. LD50 to rabbit i.v. DE250 (therapeutic breadth); for Heartbeat Frequency x ± sx / DE250: wake rabbits; for Heartbeat Frequency x ± sx: 30 min later isoprenalin i.v.; for DE250: interpolated dosage which limits the frequency increase to 250 beats/min
Experimental: (§1) The following tests were carried out to determine (a) the toxicity and (b) the cardiac β-receptor blocking activity of certain test compounds by determining the inhibition of the heart beat frequency increase induced by intravenous administration of isoprenalin.
b. The β-receptor blocking activity of the test compounds was tested on wake rabbits weighing between 2 to 3.5 kg. and kept in wooden cages. EKG-electrodes were inserted into the hind quarters of the rabbits s.c. (II. lead) and the heart frequency was measured using an integrator (15 seconds) as a digital value. The test compounds were then infused through a small tube to the ear vein of the rabbits over a period of 15 minutes. 30 Minutes after the infusion isoprenalin (3,4-dihydroxy-α-[(isopropylamino)-methyl]-benzylalcohol) was injected intravenously at […].

in vivo = details: iv, mouse, i.v. (tail vein), five male and five female mice per dosage, read-out: Acute Toxicity LD50 Mouse
Experimental: as §1
a. […] The compounds, in dissolved form, were injected into the tail vein of five male and five female mice each in increasing dosages. The results (% of animals which died) were used, via programmed probability analysis, to determine the median lethal dosage (LD50).

Compound	LD50/DE250 (cardiac β-receptor)	Heartbeat Frequency x ± sx (cardiac β-receptor; 0.5 mg/kg i.v. infusion) [beats/min]	Heartbeat Frequency x ± sx (cardiac β-receptor; 1.0 mg/kg i.v. infusion) [beats/min]	Heartbeat Frequency x ± sx (cardiac β-receptor; 2.0 mg/kg i.v. infusion) [beats/min]	Heartbeat Frequency x ± sx (cardiac β-receptor; 5.0 mg/kg i.v. infusion) [beats/min]	Heartbeat Frequency x ± sx (cardiac β-receptor; 10.0 mg/kg i.v. infusion) [beats/min]	Heartbeat Frequency x ± sx (cardiac β-receptor; 20.0 mg/kg i.v. infusion) [beats/min]	DE250 (cardiac β-receptor) [mg/kg i.v.]	Heartbeat Frequency x ± sx (cardiac β-receptor; 0.01 mg/kg i.v. infusion) [beats/min]	Heartbeat Frequency x ± sx (cardiac β-receptor; 0.1 mg/kg i.v. infusion) [beats/min]	Heartbeat Frequency x ± sx (cardiac β-receptor; 0.25 mg/kg i.v. infusion) [beats/min]	Heartbeat Frequency x ± sx (cardiac β-receptor; 4.0 mg/kg i.v. infusion) [beats/min]	LD50 (in vivo) [mg/kg]	Heartbeat Frequency x ± sx (cardiac β-receptor; 0.05 mg/kg i.v. infusion) [beats/min]
CC(=O)Nc1ccc(OCC(O)CNC(C)C)cc1 (stereo not drawn) [Compound A, 4-(2-Hydroxy-3-isopropylamino-propoxy)-acetanilide, reference compound]	28	307 ± 7	264 ± 9	250 ± 4	246 ± 7	217 ± 4	225 ± 6	2.5						
CC(C)NCC(O)COc1cccc2ccccc12 (stereo not drawn) [Compound B, 1-Isopropylamino-3-(1-naphthoxy)-2-propanol, reference compound]		248 ± 6	210 ± 8					0.400	342 ± 5	309 ± 9	259 ± 7	191 ± 6		
CC(C)NCC(O)COc1cccc2nc[nH]c12 (stereo not drawn) [Compound I, 4-(3-Isopropylamino-2-hydroxy-propyloxy)-benzimidazole]	422	228 ± 5	218 ± 11		219 ± 13			0.09	300 ± 11	239 ± 6			38	292 ± 17
CC(C)(C)NCC(O)COc1cccc2nc[nH]c12 (stereo not drawn) [Compound II, 4-(3-tert.-Butylamino-2-hydroxy-propyloxy)-benzimidazole]	560		244 ± 9		273 ± 11			0.05	286 ± 12	236 ± 6			28	
Cc1nc2cccc(OCC(O)CNC(C)C)c2[nH]1 (stereo not drawn) [Compound III, 2-Methyl-4-(3-isopropylamino-2-hydroxy-propyloxy)-benzimidazole]	170		234 ± 11		219 ± 14			0.17	303 ± 17	255 ± 9			29	318 ± 11
Cc1nc2cccc(OCC(O)CNC(C)(C)C)c2[nH]1 (stereo not drawn) [Compound IV, 2-Methyl-4-(3-tert.-butylamino-2-hydroxy-propyloxy)-benzimidazole]	425	224 ± 8	211 ± 5		232 ± 5			0.08	289 ± 18	248 ± 7			34	255 ± 7
